In one assay the target is T1, DDR1 (Homo sapiens, UniProt Q08345).
T1 construct: purchased Carna Biosciences
In words: LanthaScreen Europium Kinase Binding assay, DDR1. To be noted: 5 nM DDR1, 20 nM Kinase Tracer 178, 1 h at rt; Ki from IC50 by Cheng-Prusoff; read-out: Ki DDR1. How it is done:
(§1) DDR1 and DDR2 binding assays were performed using Life Technologies LanthaScreen™ Europium Kinase Binding assay. […] IC50 values were determined in GraphPad Prism 7.0 software, using 4 parameter model: log (inhibitor) vs. response. IC50 values were converted in Ki using the Cheng-Prusoff equation (Ki-IC50/(1+ [Tracer]/Kd).
In general terms: Time-resolved FRET reads energy transfer from a long-lived donor to a nearby acceptor.

The target of a further assay is T2, DDR2 (Homo sapiens, UniProt Q16832).
T2 construct: purchased Life Technologies
T2 sequence (Q16832 22-855): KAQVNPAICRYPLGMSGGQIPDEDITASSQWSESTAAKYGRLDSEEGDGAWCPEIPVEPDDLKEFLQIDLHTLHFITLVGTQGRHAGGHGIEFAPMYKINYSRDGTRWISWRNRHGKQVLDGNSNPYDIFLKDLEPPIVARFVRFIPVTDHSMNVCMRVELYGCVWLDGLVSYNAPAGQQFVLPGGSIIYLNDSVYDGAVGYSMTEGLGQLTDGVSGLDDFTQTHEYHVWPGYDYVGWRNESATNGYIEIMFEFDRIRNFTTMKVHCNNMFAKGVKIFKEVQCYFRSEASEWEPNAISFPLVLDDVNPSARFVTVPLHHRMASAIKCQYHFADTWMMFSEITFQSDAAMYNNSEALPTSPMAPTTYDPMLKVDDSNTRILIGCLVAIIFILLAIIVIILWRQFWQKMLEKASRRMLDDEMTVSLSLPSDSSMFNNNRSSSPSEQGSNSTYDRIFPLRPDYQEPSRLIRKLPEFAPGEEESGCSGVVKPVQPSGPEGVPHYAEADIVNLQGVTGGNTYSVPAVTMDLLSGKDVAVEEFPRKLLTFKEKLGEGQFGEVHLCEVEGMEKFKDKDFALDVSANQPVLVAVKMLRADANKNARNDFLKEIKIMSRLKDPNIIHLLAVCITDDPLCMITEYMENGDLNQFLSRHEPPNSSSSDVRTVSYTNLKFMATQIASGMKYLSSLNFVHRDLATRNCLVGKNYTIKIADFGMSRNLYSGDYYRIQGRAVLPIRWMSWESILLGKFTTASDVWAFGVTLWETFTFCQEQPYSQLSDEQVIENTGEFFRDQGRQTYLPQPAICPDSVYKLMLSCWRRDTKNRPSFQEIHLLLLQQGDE
Description: LanthaScreen Europium Kinase Binding assay, DDR2. To be noted: 5 nM DDR2, 10 nM Kinase Tracer 178, 1 h at rt; Ki from IC50 by Cheng-Prusoff; read-out: Ki DDR2. The method, then: as §1

T1 sequence (Q08345 19-913): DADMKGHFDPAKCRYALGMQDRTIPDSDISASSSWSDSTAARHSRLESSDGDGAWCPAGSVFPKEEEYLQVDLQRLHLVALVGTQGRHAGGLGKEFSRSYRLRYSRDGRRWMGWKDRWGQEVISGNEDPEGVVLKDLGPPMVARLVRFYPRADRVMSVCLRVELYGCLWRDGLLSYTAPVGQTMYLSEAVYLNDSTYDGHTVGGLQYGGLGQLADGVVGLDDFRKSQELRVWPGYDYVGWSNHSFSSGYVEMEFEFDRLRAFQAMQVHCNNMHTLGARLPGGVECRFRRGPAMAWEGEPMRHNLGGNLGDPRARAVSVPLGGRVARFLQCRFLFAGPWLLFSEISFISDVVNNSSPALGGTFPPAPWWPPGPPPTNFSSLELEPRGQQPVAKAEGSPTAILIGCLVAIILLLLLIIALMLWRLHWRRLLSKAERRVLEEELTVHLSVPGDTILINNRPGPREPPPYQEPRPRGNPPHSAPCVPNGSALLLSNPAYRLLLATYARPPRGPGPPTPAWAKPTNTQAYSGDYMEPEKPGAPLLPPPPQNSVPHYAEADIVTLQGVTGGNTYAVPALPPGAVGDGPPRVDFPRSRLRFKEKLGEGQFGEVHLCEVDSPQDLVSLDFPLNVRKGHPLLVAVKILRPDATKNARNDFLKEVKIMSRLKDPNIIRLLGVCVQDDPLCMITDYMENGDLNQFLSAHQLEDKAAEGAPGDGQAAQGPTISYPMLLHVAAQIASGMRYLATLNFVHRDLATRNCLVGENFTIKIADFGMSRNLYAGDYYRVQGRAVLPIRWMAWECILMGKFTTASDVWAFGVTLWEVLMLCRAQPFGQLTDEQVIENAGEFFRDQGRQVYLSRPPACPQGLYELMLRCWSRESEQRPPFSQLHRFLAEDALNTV

Consider `CN(C(=O)Nc1cncc(C(F)(F)F)c1)C1CC2(C1)CN(C(=O)c1ncnc3ccsc13)C2` [Example 130, 1-methyl-1-(2-(thieno[3,2-d]pyrimidine-4-carbonyl)-2-azaspiro[3.3]heptan-6-yl)-3-(5-(trifluoromethyl)pyridin-3-yl)urea], for which the Ki on DDR1 was less than 5 nM; on DDR2 it was 5 to 25 nM.

In the case of `CN(C(=O)Nc1ccc(F)c(C(F)(F)F)c1)C1CC2(C1)CN(C(=O)c1cnn3ccn(C)c13)C2` [Example 131, 3-(4-fluoro-3-(trifluoromethyl)phenyl)-1-methyl-1-(2-(1-methyl-1H-imidazo[1,2-b]pyrazole-7-carbonyl)-2-azaspiro[3.3]heptan-6-yl)urea], the Ki was less than 5 nM at DDR1 and 5 to 25 nM on DDR2.

For the molecule `CN(C(=O)Nc1cc(OC(F)(F)F)ccc1F)C1CC2(C1)CN(C(=O)c1cnn3ccn(C)c13)C2` [Example 132, 3-(2-fluoro-5-(trifluoromethoxy)phenyl)-1-methyl-1-(2-(1-methyl-1H-imidazo[1,2-b]pyrazole-7-carbonyl)-2-azaspiro[3.3]heptan-6-yl)urea], the Ki on DDR1 was less than 5 nM; on DDR2, 5 to 25 nM.

As to `CN(C(=O)Nc1cccc(C(F)(F)F)c1)C1CC2(C1)CN(C(=O)c1cnn3ccsc13)C2` [Example 133, 1-methyl-1-(2-(pyrazolo[5,1-b]thiazole-7-carbonyl)-2-azaspiro[3.3]heptan-6-yl)-3-(3-(trifluoromethyl)phenyl)urea], the Ki was less than 5 nM at DDR1 and 5 to 25 nM on DDR2.

For the molecule `CN(C(=O)Nc1cccc(C(F)(F)F)c1)C1CC2(C1)CN(C(=O)c1cnn3ccn(C)c13)C2` [Example 134, 1-methyl-1-(2-(1-methyl-1H-imidazo[1,2-b]pyrazole-7-carbonyl)-2-azaspiro[3.3]heptan-6-yl)-3-(3-(trifluoromethyl)phenyl)urea], the figures for the Ki on DDR1 and on DDR2 were less than 5 nM and 5 to 25 nM, respectively.

As for `O=C(Nc1cccc(C(F)(F)F)c1)NC1CC2(C1)CN(C(=O)c1cnn3c1SCC3)C2` [Example 135, 1-(2-(2,3-dihydropyrazolo[5,1-b]thiazole-7-carbonyl)-2-azaspiro[3.3]heptan-6-yl)-3-(3-(trifluoromethyl)phenyl)urea], the Ki was less than 5 nM on DDR1 and 5 to 25 nM at DDR2.

Turning to `O=C(Nc1cccc(C(F)(F)F)c1)NC1CC2(C1)CN(C(=O)c1cnn3c1SCCC3)C2` [Example 136, 1-(2-(6,7-dihydro-5H-pyrazolo[5,1-b][1,3]thiazine-3-carbonyl)-2-azaspiro[3.3]heptan-6-yl)-3-(3-(trifluoromethyl)phenyl)urea], the results for the inhibitory constant (Ki) on DDR1 and on DDR2 were less than 5 nM and 5 to 25 nM, respectively.

As to `O=C(Nc1cccc(C(F)(F)F)c1)NC1CC2(C1)CN(C(=O)c1ccnc3ccsc13)C2` [Example 137, 1-(2-(thieno[3,2-b]pyridine-7-carbonyl)-2-azaspiro[3.3]heptan-6-yl)-3-(3-(trifluoromethyl)phenyl)urea], the Ki at DDR1 and at DDR2 was less than 5 nM each time.

For `O=C(Nc1cccc(C(F)(F)F)c1)NC1CC2(C1)CN(c1cnc3[nH]ncc3c1)C2` [Example 138, 1-(2-(1H-pyrazolo[3,4-b]pyridine-5-yl)-2-azaspiro[3.3]heptan-6-yl)-3-(3-(trifluoromethyl)phenyl)urea], the Ki at DDR1 and at DDR2 was less than 5 nM throughout.

On to `COc1ccc(OC(F)(F)F)cc1NC(=O)CC1CC2(C1)CN(C(=O)c1ccnc3ccsc13)C2` [Example 139, N-(2-methoxy-5-(trifluoromethoxy)phenyl)-2-(2-(thieno[3,2-b]pyridine-7-carbonyl)-2-azaspiro[3.3]heptan-6-yl)acetamide], for which the Ki on DDR1 and at DDR2 was less than 5 nM throughout.

Regarding `O=C(CC1CC2(C1)CN(C(=O)c1ccnc3ccsc13)C2)Nc1cccc(C(F)(F)F)c1` [Example 140, 2-(2-(thieno[3,2-b]pyridine-7-carbonyl)-2-azaspiro[3.3]heptan-6-yl)-N-(3-(trifluoromethyl)phenyl)acetamide], the Ki at DDR1 and on DDR2 was less than 5 nM in each case.

For `Cn1ccn2ncc(C(=O)N3CC4(CC(CC(=O)Nc5cccc(C(F)(F)F)c5)C4)C3)c12` [Example 141, 2-(2-(1-methyl-1H-imidazo[1,2-b]pyrazole-7-carbonyl)-2-azaspiro[3.3]heptan-6-yl)-N-(3-(trifluoromethyl)phenyl)acetamide], the Ki at DDR1 and on DDR2 was less than 5 nM throughout.

With `COc1ccc(OC(F)(F)F)cc1NC(=O)CC1CC2(C1)CN(C(=O)c1cnn3ccn(C)c13)C2` [Example 142, N-(2-methoxy-5-(trifluoromethoxy)phenyl)-2-(2-(1-methyl-1H-imidazo[1,2-b]pyrazole-7-carbonyl)-2-azaspiro[3.3]heptan-6-yl)acetamide], the Ki at DDR1 and at DDR2 was less than 5 nM in each case.

In the case of `Cn1ccn2ncc(C(=O)N3CC4(CC(OC(=O)Nc5cccc(C(F)(F)F)c5)C4)C3)c12` [Example 143, 2-(1-methyl-1H-imidazo[1,2-b]pyrazole-7-carbonyl)-2-azaspiro[3.3]heptan-6-yl(3-(trifluoromethyl)phenyl)carbamate], the Ki on DDR1 and on DDR2 was less than 5 nM throughout.

Regarding `COc1ccc(OC(F)(F)F)cc1NC(=O)OC1CC2(C1)CN(C(=O)c1cnn3ccn(C)c13)C2` [Example 144, 2-(1-methyl-1H-imidazo[1,2-b]pyrazole-7-carbonyl)-2-azaspiro[3.3]heptan-6-yl(2-methoxy-5-(trifluoromethoxy)phenyl)carba-mate], the results for the Ki on DDR1 and on DDR2 were less than 5 nM and 5 to 25 nM, respectively.

Take `O=C(Nc1cc(C(F)(F)F)ccn1)NC1CC2(C1)CN(C(=O)c1ccnc3[nH]ncc13)C2` [Example 145, 1-(2-(1H-pyrazolo[3,4-b]pyridine-4-carbonyl)-2-azaspiro[3.3]heptan-6-yl)-3-(4-(trifluoromethyl)pyridin-2-yl)urea]: the Ki at DDR1 was less than 5 nM; on DDR2, 5 to 25 nM.

As for `Cn1ccn2ncc(C(=O)N3CC4(CC(OC(=O)Nc5cncc(C(F)(F)F)c5)C4)C3)c12` [Example 146, 2-(1-methyl-1H-imidazo[1,2-b]pyrazole-7-carbonyl)-2-azaspiro[3.3]heptan-6-yl(5-(trifluoromethyl)pyridin-3-yl)carbamate], the Ki at DDR1 was less than 5 nM; on DDR2, 5 to 25 nM.

Regarding `O=C(Nc1cccc(C(F)(F)F)c1)OC1CC2(C1)CN(C(=O)c1cnn3ccsc13)C2` [Example 147, 2-(pyrazolo[5,1-b]thiazole-7-carbonyl)-2-azaspiro[3.3]heptan-6-yl(3-(trifluoromethyl)phenyl)carbamate], the Ki at DDR1 and on DDR2 was less than 5 nM each time.

For `O=C(Nc1cccc(C(F)(F)F)c1)NC1CC2(C1)CN(c1nccn3cncc13)C2` [Example 149, 1-(2-(imidazo[1,5-a]pyrazin-8-yl)-2-azaspiro[3.3]heptan-6-yl)-3-(3-(trifluoromethyl)phenyl)urea], the inhibitory constant (Ki) at DDR1 and at DDR2 was less than 5 nM throughout.

Regarding `CN(C(=O)Nc1cc(CC(F)(F)F)ccn1)C1CC2(C1)CN(C(=O)c1cnn3ccn(C)c13)C2` [Example 150, 1-methyl-1-(2-(1-methyl-1H-imidazo[1,2-b]pyrazole-7-carbonyl)-2-azaspiro[3.3]heptan-6-yl)-3-(4-(2,2,2-trifluoroethyl)pyridin-2-yl)urea], the figures for the Ki at DDR1 and on DDR2 were less than 5 nM and 5 to 25 nM, respectively.

In the case of `Cc1ccc(OC(F)(F)F)cc1NC(=O)N(C)C1CC2(C1)CN(C(=O)c1cnn3ccsc13)C2` [Example 151, 1-methyl-3-(2-methyl-5-(trifluoromethoxy)phenyl)-1-(2-(pyrazolo[5,1-b]thiazole-7-carbonyl)-2-azaspiro[3.3]heptan-6-yl)urea], the Ki at DDR1 was less than 5 nM; on DDR2, 5 to 25 nM.

In the case of `COc1ccc(CC(F)(F)F)cc1NC(=O)NC1CC2(C1)CN(C(=O)c1cnn3ccn(C)c13)C2` [Example 152, 1-(2-methoxy-5-(2,2,2-trifluoroethyl)phenyl)-3-(2-(1-methyl-1H-imidazo[1,2-b]pyrazole-7-carbonyl)-2-azaspiro[3.3]heptan-6-yl)urea], the Ki on DDR1 was less than 5 nM; at DDR2 it was 5 to 25 nM.

For the molecule `O=C(Nc1cccc(CC(F)(F)F)c1)NC1CC2(C1)CN(C(=O)c1ccnc3[nH]ncc13)C2` [Example 153, 1-(2-(1H-pyrazolo[3,4-b]pyridine-4-carbonyl)-2-azaspiro[3.3]heptan-6-yl)-3-(3-(2,2,2-trifluoroethyl)phenyl)urea], the Ki on DDR1 and on DDR2 was less than 5 nM each time.

One may read the Ki as a dissociation constant, usually derived from enzyme kinetics or from competition with a known ligand.
